Measured values published in patent US20020048549A1, “Radioactive transition metal nitride heterocomplex” (priority 1996, published 2002).

Tested on: serotonin receptor
Experiment: Regional brain biodistribution of 99mTcN-DESI (Group A vs Group B with unlabeled desipramine)
Format: in vivo, SD rats
Protocol: The rats were divided into two groups, group A and group B. Into each rat in group A was injected 20 μCi of the ^99mTcN-DESI. Into each rat in group B were injected 20 μCi of the ^99mTcN-DESI and 1.0 mg/kg of unlabeled desipramine at the same time.
SD rats weighing about 250 g were put under intraperitoneal anesthesia with a mixture of xylazine (18 mg/kg) and ketamine (15 mg/kg) and given an injection in the jugular vein. Then, the organs (brain, heart, lung, liver, spleen, kidney, muscle, adrenal, and submaxillary gland) were excised from the rats at different intervals of time, washed and then weighed. In addition, blood samples were collected and then weighed. The data on the biodistribution are expressed as the mean±significant difference of the percentage of radioactivity level per gram of the organ weight based on the dose of radioactivity, (% dose/g). The measurement was carried out using groups of 3 rats each.

[1] = Group A (complex alone), 30 min
[2] = Group A (complex alone), 60 min
[3] = Group B (with 1.0 mg/kg unlabeled desipramine), 5 min
[4] = Group B (with 1.0 mg/kg unlabeled desipramine), 30 min
[5] = Group B (with 1.0 mg/kg unlabeled desipramine), 60 min

Compound: COCCC[P+]1(CCCOC)CCN(CCOC)CC[P+](CCCOC)(CCCOC)[99Tc-2]12(#[N])[NH]C(C(=O)N(C)CCCN1c3ccccc3CCc3ccccc31)C[S]2 (stereo not drawn) [^99mTcN-DESI]
- Cerebellum % dose/g (Group A (complex alone), 5 min): 0.064 ± 0.005 % dose/g
- Cortex % dose/g (Group A (complex alone), 5 min): 0.029 ± 0.004 % dose/g
- Hypothalamus % dose/g (Group A (complex alone), 5 min): 0.325 ± 0.058 % dose/g
- Medulla % dose/g (Group A (complex alone), 5 min): 0.057 ± 0.004 % dose/g
- Striatum % dose/g (Group A (complex alone), 5 min): 0.076 ± 0.025 % dose/g
- Cerebellum % dose/g [1]: 0.039 ± 0.015 % dose/g
- Cortex % dose/g [1]: 0.021 ± 0.002 % dose/g
- Hypothalamus % dose/g [1]: 0.408 ± 0.085 % dose/g
- Medulla % dose/g [1]: 0.046 ± 0.003 % dose/g
- Striatum % dose/g [1]: 0.054 ± 0.017 % dose/g
- Cerebellum % dose/g [2]: 0.028 ± 0.012 % dose/g
- Cortex % dose/g [2]: 0.021 ± 0.002 % dose/g
- Hypothalamus % dose/g [2]: 0.364 ± 0.069 % dose/g
- Medulla % dose/g [2]: 0.029 ± 0.006 % dose/g
- Striatum % dose/g [2]: 0.07 ± 0.019 % dose/g
- Cerebellum % dose/g [3]: 0.048 ± 0.008 % dose/g
- Cortex % dose/g [3]: 0.014 ± 0.004 % dose/g
- Hypottalamus % dose/g [3]: 0.125 ± 0.029 % dose/g
- Medulla % dose/g [3]: 0.038 ± 0.001 % dose/g
- Striatum % dose/g [3]: 0.053 ± 0.001 % dose/g
- Cerebellum % dose/g [4]: 0.035 ± 0.007 % dose/g
- Cortex % dose/g [4]: 0.009 ± 0.002 % dose/g
- Hypottalamus % dose/g [4]: 0.162 ± 0.106 % dose/g
- Medulla % dose/g [4]: 0.027 ± 0.013 % dose/g
- Striatum % dose/g [4]: 0.023 ± 0.003 % dose/g
- Cerebellum % dose/g [5]: 0.031 ± 0.011 % dose/g
- Cortex % dose/g [5]: 0.006 ± 0.000 % dose/g
- Hypottalamus % dose/g [5]: 0.152 ± 0.033 % dose/g
- Medulla % dose/g [5]: 0.016 ± 0.002 % dose/g
- Striatum % dose/g [5]: 0.035 ± 0.011 % dose/g
- accumulation in cortex (group A, no unlabeled desipramine): specifically accumulated
- accumulation in cortex (group B, unlabeled desipramine administered): very small amount
- specificity for serotonin receptor (suggested from group A vs group B cortex accumulation): retained specificity for serotonin receptor
